The Kinase Knowledgebase extract (Sharma et al. 2016)

Tests used:
[1] = biological target: PIK3CA (human) (UniProt P42336); assay: Inhibition of PIK3CA Kinase Activity
[2] = biological target: PIK3CG (human) (UniProt P48736); assay: Inhibition of PIK3CG Kinase Activity
[3] = biological target: PIK3CD (Human) (UniProt O00329); assay: Inhibition of PIK3CD Kinase Activity
[4] = biological target: PIK3CB (Human) (UniProt P42338); assay: Inhibition of PIK3CB Kinase Activity
Sequence of PIK3CB (Human) (P42338 whole entry, looked up): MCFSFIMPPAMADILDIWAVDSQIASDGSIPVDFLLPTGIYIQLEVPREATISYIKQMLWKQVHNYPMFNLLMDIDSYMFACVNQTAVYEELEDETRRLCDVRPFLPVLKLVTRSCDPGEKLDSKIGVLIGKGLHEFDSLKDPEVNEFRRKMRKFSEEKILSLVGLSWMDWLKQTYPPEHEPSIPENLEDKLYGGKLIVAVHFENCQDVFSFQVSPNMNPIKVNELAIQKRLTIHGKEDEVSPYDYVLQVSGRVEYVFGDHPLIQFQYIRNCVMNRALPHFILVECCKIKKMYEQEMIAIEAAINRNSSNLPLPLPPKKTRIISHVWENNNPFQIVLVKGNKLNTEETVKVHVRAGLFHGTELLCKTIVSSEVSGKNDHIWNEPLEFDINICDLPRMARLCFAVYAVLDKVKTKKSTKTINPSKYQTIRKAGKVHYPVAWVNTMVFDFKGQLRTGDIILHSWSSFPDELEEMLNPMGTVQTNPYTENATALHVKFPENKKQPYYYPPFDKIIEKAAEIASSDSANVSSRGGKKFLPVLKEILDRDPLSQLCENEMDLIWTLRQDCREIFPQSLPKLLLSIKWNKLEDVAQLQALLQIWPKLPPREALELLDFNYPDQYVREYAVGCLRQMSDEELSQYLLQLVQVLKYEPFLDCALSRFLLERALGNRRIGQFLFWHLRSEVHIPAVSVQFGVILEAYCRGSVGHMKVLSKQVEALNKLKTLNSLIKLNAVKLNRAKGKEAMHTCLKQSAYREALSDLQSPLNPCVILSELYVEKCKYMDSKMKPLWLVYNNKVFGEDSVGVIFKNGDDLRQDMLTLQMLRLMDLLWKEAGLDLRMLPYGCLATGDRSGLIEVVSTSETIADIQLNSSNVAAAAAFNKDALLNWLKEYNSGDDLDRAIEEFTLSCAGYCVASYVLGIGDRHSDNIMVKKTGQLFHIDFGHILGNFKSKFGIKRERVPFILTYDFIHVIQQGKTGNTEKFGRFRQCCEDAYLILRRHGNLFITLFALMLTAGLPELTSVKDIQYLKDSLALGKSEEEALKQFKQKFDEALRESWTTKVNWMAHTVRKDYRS

Sequence of PIK3CD (Human) (O00329 whole entry, looked up): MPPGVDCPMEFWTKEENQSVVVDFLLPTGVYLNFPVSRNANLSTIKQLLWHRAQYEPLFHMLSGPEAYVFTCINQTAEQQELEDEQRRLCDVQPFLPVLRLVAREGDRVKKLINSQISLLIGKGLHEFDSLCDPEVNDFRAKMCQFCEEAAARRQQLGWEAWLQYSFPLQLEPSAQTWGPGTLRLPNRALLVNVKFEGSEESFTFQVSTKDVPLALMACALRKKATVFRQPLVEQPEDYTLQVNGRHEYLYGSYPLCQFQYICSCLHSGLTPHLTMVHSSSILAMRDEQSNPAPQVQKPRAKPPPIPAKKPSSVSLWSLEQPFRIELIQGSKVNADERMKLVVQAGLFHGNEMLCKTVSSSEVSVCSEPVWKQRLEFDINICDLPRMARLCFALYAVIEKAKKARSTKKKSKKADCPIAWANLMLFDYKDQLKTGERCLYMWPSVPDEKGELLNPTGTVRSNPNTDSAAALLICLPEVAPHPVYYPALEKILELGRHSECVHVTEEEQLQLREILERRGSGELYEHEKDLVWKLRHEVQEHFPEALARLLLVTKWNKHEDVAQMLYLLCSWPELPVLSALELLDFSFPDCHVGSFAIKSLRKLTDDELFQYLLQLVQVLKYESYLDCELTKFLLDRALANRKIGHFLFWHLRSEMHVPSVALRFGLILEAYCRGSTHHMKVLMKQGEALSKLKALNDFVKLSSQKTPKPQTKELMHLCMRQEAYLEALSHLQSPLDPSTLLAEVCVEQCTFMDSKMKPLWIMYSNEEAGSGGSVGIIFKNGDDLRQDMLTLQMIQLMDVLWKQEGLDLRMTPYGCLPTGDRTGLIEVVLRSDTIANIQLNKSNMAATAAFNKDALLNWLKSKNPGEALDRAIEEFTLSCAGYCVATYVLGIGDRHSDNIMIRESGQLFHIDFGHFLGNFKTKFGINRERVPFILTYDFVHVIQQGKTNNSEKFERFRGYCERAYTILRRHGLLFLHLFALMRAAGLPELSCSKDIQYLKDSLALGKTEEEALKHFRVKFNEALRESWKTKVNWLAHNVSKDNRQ
Sequence of PIK3CA (human) (P42336 whole entry, looked up): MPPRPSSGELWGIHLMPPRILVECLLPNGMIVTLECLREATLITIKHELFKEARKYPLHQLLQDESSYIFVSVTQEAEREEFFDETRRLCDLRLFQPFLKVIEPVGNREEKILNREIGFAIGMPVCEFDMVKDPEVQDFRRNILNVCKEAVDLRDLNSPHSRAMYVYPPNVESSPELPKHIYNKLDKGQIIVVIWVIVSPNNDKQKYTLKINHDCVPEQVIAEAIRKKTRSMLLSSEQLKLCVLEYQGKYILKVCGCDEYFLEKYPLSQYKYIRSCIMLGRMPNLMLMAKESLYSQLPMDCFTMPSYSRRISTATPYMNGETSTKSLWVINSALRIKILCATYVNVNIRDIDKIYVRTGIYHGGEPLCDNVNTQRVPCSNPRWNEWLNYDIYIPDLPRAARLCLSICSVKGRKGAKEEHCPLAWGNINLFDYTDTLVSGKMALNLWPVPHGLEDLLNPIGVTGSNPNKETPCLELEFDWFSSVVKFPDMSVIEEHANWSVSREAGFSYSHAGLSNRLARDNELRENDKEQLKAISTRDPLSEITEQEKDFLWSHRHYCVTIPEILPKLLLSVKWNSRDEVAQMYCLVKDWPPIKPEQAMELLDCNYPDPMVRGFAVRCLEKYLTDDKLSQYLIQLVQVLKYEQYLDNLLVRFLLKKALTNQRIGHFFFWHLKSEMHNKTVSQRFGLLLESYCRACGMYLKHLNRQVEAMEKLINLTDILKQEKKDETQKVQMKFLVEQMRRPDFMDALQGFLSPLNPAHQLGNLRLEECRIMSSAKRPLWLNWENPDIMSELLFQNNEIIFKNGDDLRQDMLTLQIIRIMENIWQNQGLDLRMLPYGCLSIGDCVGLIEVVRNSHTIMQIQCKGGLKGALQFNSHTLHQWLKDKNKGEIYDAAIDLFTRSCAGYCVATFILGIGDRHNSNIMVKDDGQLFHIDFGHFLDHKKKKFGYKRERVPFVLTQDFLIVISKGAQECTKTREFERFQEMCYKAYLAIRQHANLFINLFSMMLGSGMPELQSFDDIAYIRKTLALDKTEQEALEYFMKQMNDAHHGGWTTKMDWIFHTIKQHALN
Sequence of PIK3CG (human) (P48736 whole entry, looked up): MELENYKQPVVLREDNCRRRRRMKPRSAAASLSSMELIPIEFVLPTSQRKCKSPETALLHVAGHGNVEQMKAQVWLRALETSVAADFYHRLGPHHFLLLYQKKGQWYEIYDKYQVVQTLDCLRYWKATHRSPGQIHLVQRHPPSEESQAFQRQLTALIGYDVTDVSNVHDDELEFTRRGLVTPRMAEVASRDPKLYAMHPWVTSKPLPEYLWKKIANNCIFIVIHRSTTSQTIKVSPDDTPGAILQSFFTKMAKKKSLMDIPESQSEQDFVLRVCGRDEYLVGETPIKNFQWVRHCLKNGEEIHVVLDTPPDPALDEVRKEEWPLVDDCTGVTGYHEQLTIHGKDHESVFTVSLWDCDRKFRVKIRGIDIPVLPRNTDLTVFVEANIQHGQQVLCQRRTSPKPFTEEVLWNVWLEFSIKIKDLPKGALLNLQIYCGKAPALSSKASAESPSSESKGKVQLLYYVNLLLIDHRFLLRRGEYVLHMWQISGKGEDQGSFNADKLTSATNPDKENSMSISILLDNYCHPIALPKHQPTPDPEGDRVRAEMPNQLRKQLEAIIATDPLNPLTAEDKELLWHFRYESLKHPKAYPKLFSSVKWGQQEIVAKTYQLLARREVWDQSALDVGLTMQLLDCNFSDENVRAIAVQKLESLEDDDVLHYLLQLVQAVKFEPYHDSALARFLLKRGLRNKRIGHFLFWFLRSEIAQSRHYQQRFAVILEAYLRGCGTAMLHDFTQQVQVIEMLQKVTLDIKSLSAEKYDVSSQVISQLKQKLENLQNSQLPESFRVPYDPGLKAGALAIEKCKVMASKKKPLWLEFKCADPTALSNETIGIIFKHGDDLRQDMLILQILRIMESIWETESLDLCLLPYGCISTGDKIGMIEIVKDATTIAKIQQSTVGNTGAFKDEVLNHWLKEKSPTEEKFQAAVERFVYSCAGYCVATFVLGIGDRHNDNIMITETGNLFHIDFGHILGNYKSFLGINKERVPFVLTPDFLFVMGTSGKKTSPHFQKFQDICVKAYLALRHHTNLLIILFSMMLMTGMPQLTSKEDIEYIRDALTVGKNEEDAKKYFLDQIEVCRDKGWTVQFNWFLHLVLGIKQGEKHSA

IC50 [1] | IC50 [2] | IC50 [3] | IC50 [4] | SMILES
< 1000 nM | < 1000 nM | < 1000 nM | < 1000 nM | CN1CCN(C(=O)N2CCC(n3ncc4c(-c5cnc(N)nc5)nc(N5CCOCC5)nc43)CC2)CC1
< 1000 nM | < 1000 nM | < 1000 nM | < 1000 nM | Nc1ncc(-c2nc(N3CCOCC3)nc3c2cnn3C2CCOCC2)cn1

SMILES | IC50 [1] | IC50 [2] | IC50 [3] | IC50 [4]
CC(C)(O)Cn1ncc2c(-c3cnc(N)nc3)nc(N3CCOCC3)nc21 | < 1000 nM | < 1000 nM | < 1000 nM | < 1000 nM
